Assay results as given in patent US9492444B2, “Extruded extended release abuse deterrent pill” (Pharmaceutical Manufacturing Research Services, Inc., priority 2013, dated 2016).

Columns and labels:
[1] = cited from earlier work
[2] = General solubility of exemplary components; type: physicochemical; settings: 200 proof ethanol, filtered through 0.22 micrometer PTFE filter
Text: The following table lists the relative solubility of exemplary components of a formulation. A number of different dyes are listed along with their solubility information taken from the various literature sources and tested experimentally (200 proof ethanol and filtered through a 0.22 micrometer PTFE filter).

CCN(Cc1cccc(S(=O)(=O)[O-])c1)c1ccc(C(=C2C=CC(=[N+](CC)Cc3cccc(S(=O)(=O)[O-])c3)C=C2)c2ccccc2S(=O)(=O)[O-])cc1.[Na+].[Na+] [Blue #1]
Yes: Alcohol Solubility (Literature) [1] | Water Solubility [1] | Alcohol Solubility (tested) [2]

O=C1/C(=C2\Nc3ccc(S(=O)(=O)[O-])cc3C2=O)Nc2ccc(S(=O)(=O)[O-])cc21.[Na+].[Na+] [Blue #2]
Yes: Alcohol Solubility (Literature) [1] | Water Solubility [1] | Alcohol Solubility (tested) [2]

COc1cc(S(=O)(=O)[O-])c(C)cc1N=Nc1c(O)ccc2cc(S(=O)(=O)[O-])ccc12.[Na+].[Na+] [Red #40]
Yes: Alcohol Solubility (Literature) [1] | Water Solubility [1] | Alcohol Solubility (tested) [2]

O=C([O-])C1=NN(c2ccc(S(=O)(=O)[O-])cc2)C(=O)C1N=Nc1ccc(S(=O)(=O)[O-])cc1.[Na+].[Na+].[Na+] (stereo not drawn) [Yellow #5]
Yes: Alcohol Solubility (Literature) [1] | Water Solubility [1] | Alcohol Solubility (tested) [2]
